From the supplement of paper PMC12317010
Counter-ions that a name gives are not always drawn.

Experiment: collision cross section in nitrogen (drift tube, single-field); higher = larger gas-phase ion size
[1] = ion type: [M-H], ion source: ESI, ion mode: Negative
[2] = ion type: [M+Na], ion source: ESI, ion mode: Positive
[3] = ion type: [M+H], ion source: APCI, ion mode: Positive
[4] = ion type: [M+H], ion source: ESI, ion mode: Positive
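Further: chemical standards at 10 µM analysed by drift tube IMS-QTOF MS in about 3.95 torr nitrogen, mean of duplicate injections differing ≤1%, mass error below 10 ppm.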

Structure (SMILES)	collision cross section in nitrogen [1] [Å²]	collision cross section in nitrogen [2] [Å²]	collision cross section in nitrogen [3] [Å²]	collision cross section in nitrogen [4] [Å²]	also measured
O=C(O)c1ccccc1C(c1ccc(O)cc1)c1ccc(O)cc1 [Phenolphthalin]	184.1				
c1ccc2c(c1)Nc1ccccc1S2 [Phenothiazine]					collision cross section in nitrogen (ion type: [M+], ion source: APCI, ion mode: Positive): 136 Å²
CCOC(=O)C(SP(=S)(OC)OC)c1ccccc1 (centres undefined) [Phenthoate]		175.1			
O=C(Oc1ccccc1)c1ccccc1O [Phenyl salicylate]	145.7				
O=C(Oc1ccccc1)c1ccc(O)cc1 [Phenylparaben]	150.3				
O=P(O)(O)c1ccccc1 [Phenylphosphonic acid]	130.1				
CCOP(=S)(OCC)SCS(=O)(=O)CC [Phorate sulfone]		162.8			
CCOP(=O)(N=C1SCCS1)OCC [Phosfolan]		165.3	150.2	150.2	
CCCCOP(=O)(O)OCCCC [Phosphoric acid, dibutyl ester]	151.3				
Cc1cccc(OP(=O)(Oc2cccc(C)c2)Oc2cccc(C)c2)c1 [Phosphoric acid, tris(3-methylphenyl) ester]		198.9	188.7	188.6	
CCOP(=S)(OCC)ON=C(C#N)c1ccccc1 [Phoxim]	165.7				
CNC(=O)Oc1ccc2c(c1)[C@]1(C)CCN(C)[C@@H]1N2C [Physostigmine]		169.6	169.6	169.8	
CO/C=C(/C(=O)OC)c1ccccc1COc1cccc(C(F)(F)F)n1 [Picoxystrobin]		179.3			
O=c1[nH]c2ccccc2n1C1CCN(CCCC(c2ccc(F)cc2)c2ccc(F)cc2)CC1 [Pimozide]	215.8	217.6	211.9	211.8	
CCOc1ccc2c(ccc(C=Cc3cccc([N+](=O)[O-])c3)[n+]2C)c1 [Pinakryptol Yellow]					collision cross section in nitrogen (ion source: ESI, ion mode: Positive, ion type: [M]+ (permanent cation)): 189.2 Å²
CCc1cc(C)cc(CC)c1-c1c(OC(=O)C(C)(C)C)n2n(c1=O)CCOCC2 [Pinoxaden]		202.8	196.5	196.6	
CCc1ccc(CCOc2ccc(CC3SC(=O)NC3=O)cc2)nc1 (centres undefined) [Pioglitazone hydrochloride]	176.4	186.7	178.8	178.9	
O=C(/C=C/C=C/c1ccc2c(c1)OCO2)N1CCCCC1 [Piperine]		177.8	176	175.7	
CCCCOCCOCCOCc1cc2c(cc1CCC)OCO2 [Piperonyl butoxide]		179.9			
CS(=O)(=O)c1ccc([C@@H](C[C@H]2CCC(=O)C2)C(=O)Nc2cnccn2)cc1Cl [Piragliatin]	204.3				
Cc1nc(N(C)C)nc(OC(=O)N(C)C)c1C [Pirimicarb]		164.2	152	156.4	
